Values belong to the molecule of their own block, whether it stands above or below them. Starred links: 1 amine or outer side, 2 acyl side, 3 side chain; linkers in the order of their positions; H or OH if unused. Positions of bridges follow the written chain, without caps; N, C: chain ends. Residues, ends and D or L forms follow the SMILES beside them. mXylylene = c1cc(C[*:1])cc(C[*:2])c1
How the values were obtained:
Format in all cases: biochemical
Calpain (Calpain-1) = molecular target: T1, Calpain (Calpain-1) (Homo sapiens, UniProt P07384); assay: in vitro fluorescence-based protease inhibition assay, calpain
T1 sequence (P07384 1-714): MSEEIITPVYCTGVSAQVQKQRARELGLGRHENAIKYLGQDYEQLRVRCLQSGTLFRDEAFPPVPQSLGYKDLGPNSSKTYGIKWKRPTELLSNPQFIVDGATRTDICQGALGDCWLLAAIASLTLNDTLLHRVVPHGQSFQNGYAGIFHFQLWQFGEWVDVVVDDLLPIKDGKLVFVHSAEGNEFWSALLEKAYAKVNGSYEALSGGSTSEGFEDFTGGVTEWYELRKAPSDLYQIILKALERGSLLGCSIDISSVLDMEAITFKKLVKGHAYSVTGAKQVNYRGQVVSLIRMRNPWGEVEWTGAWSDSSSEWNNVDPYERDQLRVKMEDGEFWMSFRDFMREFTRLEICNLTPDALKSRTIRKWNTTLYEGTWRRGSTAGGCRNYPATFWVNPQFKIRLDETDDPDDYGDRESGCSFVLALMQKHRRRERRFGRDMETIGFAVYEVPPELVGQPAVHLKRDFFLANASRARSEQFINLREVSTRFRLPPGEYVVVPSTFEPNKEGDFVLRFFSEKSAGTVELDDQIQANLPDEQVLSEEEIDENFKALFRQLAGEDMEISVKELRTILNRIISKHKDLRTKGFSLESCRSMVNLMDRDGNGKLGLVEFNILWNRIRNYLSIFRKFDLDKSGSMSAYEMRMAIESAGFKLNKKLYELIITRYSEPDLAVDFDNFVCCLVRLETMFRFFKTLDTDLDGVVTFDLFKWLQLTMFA
T1 sequence (P04632 1-268 partner): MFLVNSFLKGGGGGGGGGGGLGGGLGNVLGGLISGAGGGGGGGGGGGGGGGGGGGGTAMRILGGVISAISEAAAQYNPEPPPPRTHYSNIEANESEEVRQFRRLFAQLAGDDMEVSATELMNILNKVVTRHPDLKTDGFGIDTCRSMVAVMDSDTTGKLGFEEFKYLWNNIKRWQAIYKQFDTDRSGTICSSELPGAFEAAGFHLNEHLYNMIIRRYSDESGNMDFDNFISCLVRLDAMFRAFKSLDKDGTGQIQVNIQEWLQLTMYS
Description: (§1) Thus, the present invention includes a series of potent and highly specific α-helical inhibitors for papain family cysteine proteases. […] These short α-helical peptidomimetic inhibitors are modeled after the natural pro-domain sequence but contain a cysteine substitution at specific residues in i,i+4 positions, as shown in FIG. 2B. These cysteine residues are used for stabilization of the helix utilizing an appropriate linker (Muppidi, et al., 2011, Chem Commun (Camb) 47:9396-9398). After synthesis, each inhibitor was tested against its respective protease using an in vitro fluorescence-based assay. For each enzyme, at least one inhibitor was identified that is relatively potent and highly specific for its individual protease. These inhibitors can be modified or otherwise optimized to attain higher potency and selectivity through identification of key interactions between the inhibitor and the active site amino acid residues. Such optimization involves visual examination of the protease crystal structure, and substitution with either non-natural or natural amino acids to exploit possible crucial non-covalent protein ligand interactions, such as hydrogen bond, electrostatic, hydrophobic, and Van der Waals interactions.

Cathepsin L = Cathepsin L (Homo sapiens, UniProt P07711); assay: in vitro fluorescence-based protease inhibition assay, cathepsin L; conditions: for Ki: Table 4, calpain inhibitors
Description: as §1

Cathepsin K = molecular target: T2, Cathepsin K (Homo sapiens, UniProt P43235); assay: in vitro fluorescence-based protease inhibition assay, cathepsin K
T2 sequence (P43235 115-329): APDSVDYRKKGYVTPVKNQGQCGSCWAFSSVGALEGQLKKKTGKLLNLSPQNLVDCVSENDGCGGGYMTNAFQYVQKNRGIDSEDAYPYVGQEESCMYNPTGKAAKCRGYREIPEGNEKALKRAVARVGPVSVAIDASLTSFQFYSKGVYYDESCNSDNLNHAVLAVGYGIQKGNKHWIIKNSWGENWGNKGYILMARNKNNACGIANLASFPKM
Description: as §1

[1] = Table 2, cathepsin S inhibitors

Chain of Cathepsin L (P07711 114-333, species assumed): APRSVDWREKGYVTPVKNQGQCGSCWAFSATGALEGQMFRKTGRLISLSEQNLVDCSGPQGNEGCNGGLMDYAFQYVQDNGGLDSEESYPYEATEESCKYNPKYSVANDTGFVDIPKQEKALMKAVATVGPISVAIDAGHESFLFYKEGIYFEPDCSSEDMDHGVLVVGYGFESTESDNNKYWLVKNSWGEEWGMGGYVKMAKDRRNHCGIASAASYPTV

Ki (Calpain (Calpain-1); Table 4, calpain inhibitors): 65.6 ± 20.5 µM
Ki (Cathepsin L): 12.5 ± 1.2 µM
Molecule: CC(C)C[C@@H]1NC(=O)[C@H](CC(C)C)NC(=O)[C@H](CCC(=O)O)NC(=O)[C@@H](NC(=O)[C@H](Cc2ccc(O)cc2)NC(=O)[C@H](CCCCN)NC(=O)[C@@H]2CCCN2C(=O)[C@@H]2CCCN2C(=O)[C@H](C)N)CSCc2cccc(c2)CSC[C@@H](C(=O)O)NC1=O [compound 72] (H-APPKYCELLC-OH; linker 6-10 via mXylylene; N-terminus and C-terminus assumed)

Ki (Calpain (Calpain-1); [1]): 85.5 ± 1.3 µM
Molecule: CSCC[C@@H]1NC(=O)[C@H](CC(C)C)NC(=O)[C@H](CO)NC(=O)[C@@H](NC(=O)[C@@H](NC(=O)[C@H](Cc2c[nH]c3ccccc23)NC(=O)[C@H](CCC(=O)O)NC(=O)[C@H](Cc2c[nH]c3ccccc23)NC(=O)[C@@H](N)Cc2c[nH]c3ccccc23)C(C)C)CSCc2cccc(c2)CSC[C@@H](C(=O)N[C@@H](CO)C(=O)O)NC1=O [compound 25] (H-WWEWVCSLMCS-OH; linker 6-10 via mXylylene; N-terminus and C-terminus assumed)

Ki (Calpain (Calpain-1); [1]): 108 ± 1.28 µM
Ki (Cathepsin K; [1]): > 100 µM
Molecule: CSCC[C@@H]1NC(=O)[C@H](CC(C)C)NC(=O)[C@H](CO)NC(=O)[C@@H](NC(=O)[C@@H](NC(=O)[C@H](CCC(=O)O)NC(=O)[C@H](CCC(=O)O)NC(=O)[C@H](CO)NC(=O)[C@@H](N)Cc2c[nH]c3ccccc23)C(C)C)CSCc2cccc(c2)CSC[C@@H](C(=O)N[C@@H](CO)C(=O)O)NC1=O [compound 17] (H-WSEEVCSLMCS-OH; linker 6-10 via mXylylene; N-terminus and C-terminus assumed)

Ki (Calpain (Calpain-1); Table 4, calpain inhibitors): 11 ± 3.6 µM
Ki (Cathepsin K; Table 4, calpain inhibitors): > 100 µM
Molecule: CC[C@H](C)[C@H](N)C(=O)N1CCC[C@H]1C(=O)N1CCC[C@H]1C(=O)N[C@@H](CCCCN)C(=O)N[C@@H](Cc1ccc(O)cc1)C(=O)N[C@H]1CSCc2cccc(c2)CSC[C@@H](C(=O)O)NC(=O)[C@H](CC(C)C)NC(=O)[C@H](CCC(N)=O)NC(=O)[C@H](CCC(=O)O)NC1=O [compound 85] (H-IPPKYCEQLC-OH; linker 6-10 via mXylylene; N-terminus and C-terminus assumed)

Cathepsin K activity (Cathepsin K; between 200-500 nM & 50 μM): 80% activity
Molecule: 35 (SCELVCKMTGL) [compound 35]

cathepsin L inhibitory activity, in words (Cathepsin L): low activity
Molecule: SECFRQCMNGF [SEQ ID NO:2]

Ki (Calpain (Calpain-1); Table 4, calpain inhibitors): 35 ± 10.4 µM
Molecule: CC(C)C[C@@H]1NC(=O)[C@H](CC(C)C)NC(=O)[C@H](CCC(=O)O)NC(=O)[C@@H](NC(=O)[C@H](Cc2ccc(O)cc2)NC(=O)[C@H](CCCCN)NC(=O)[C@@H]2CCCN2C(=O)[C@@H]2CCCN2C(=O)[C@@H](N)CCC(N)=O)CSCc2cccc(c2)CSC[C@@H](C(=O)O)NC1=O [compound 76] (H-QPPKYCELLC-OH; linker 6-10 via mXylylene; N-terminus and C-terminus assumed)

Ki (Calpain (Calpain-1); [1]): 88.4 ± 1.13 µM
Molecule: CSCC[C@@H]1NC(=O)[C@H](CC(C)C)NC(=O)[C@H](CO)NC(=O)[C@@H](NC(=O)[C@@H](NC(=O)[C@H](Cc2c[nH]c3ccccc23)NC(=O)[C@H](CCC(=O)O)NC(=O)[C@H](Cc2c[nH]c3ccccc23)NC(=O)[C@@H](N)[C@@H](C)O)C(C)C)CSCc2cccc(c2)CSC[C@@H](C(=O)N[C@@H](CO)C(=O)O)NC1=O [compound 23] (H-TWEWVCSLMCS-OH; linker 6-10 via mXylylene; N-terminus and C-terminus assumed)

Ki (Calpain (Calpain-1); Table 4, calpain inhibitors): 11 ± 3.6 µM
Ki (Cathepsin K; Table 4, calpain inhibitors): > 100 µM
Molecule: CC(C)C[C@@H]1NC(=O)[C@H](CC(C)C)NC(=O)[C@H](CCC(=O)O)NC(=O)[C@@H](NC(=O)[C@H](Cc2ccc(O)cc2)NC(=O)[C@H](CCCCN)NC(=O)[C@@H]2CCCN2C(=O)[C@@H]2CCCN2C(=O)[C@@H](N)CC(C)C)CSCc2cccc(c2)CSC[C@@H](C(=O)O)NC1=O [compound 74] (H-LPPKYCELLC-OH; linker 6-10 via mXylylene; N-terminus and C-terminus assumed)

Ki (Calpain (Calpain-1); Table 4, calpain inhibitors): 10.2 ± 2.9 µM
Ki (Cathepsin K; Table 4, calpain inhibitors): > 100 µM
Molecule: CC[C@H](C)[C@H](N)C(=O)N1CCC[C@H]1C(=O)N1CCC[C@H]1C(=O)N[C@@H](CCCCN)C(=O)N[C@@H](Cc1ccc(O)cc1)C(=O)N[C@H]1CSCc2cccc(c2)CSC[C@@H](C(=O)O)NC(=O)[C@H](CC(C)C)NC(=O)[C@H](CC(C)C)NC(=O)[C@H](CCC(=O)O)NC1=O [compound 65]

Ki (Calpain (Calpain-1); Table 4, calpain inhibitors): > 100 µM
Molecule: CC[C@H](C)[C@H](N)C(=O)N1CCC[C@H]1C(=O)N1CCC[C@H]1C(=O)N[C@@H](CCCCN)C(=O)N[C@@H](C)C(=O)N[C@H]1CSCc2cccc(c2)CSC[C@@H](C(=O)O)NC(=O)[C@H](CC(C)C)NC(=O)[C@H](CC(C)C)NC(=O)[C@H](CCC(=O)O)NC1=O [compound 81] (H-IPPKACELLC-OH; linker 6-10 via mXylylene; N-terminus and C-terminus assumed)

Ki (Calpain (Calpain-1); Table 4, calpain inhibitors): 5.3 ± 1.9 µM
Ki (Cathepsin K; Table 4, calpain inhibitors): > 100 µM
Molecule: CC[C@H](C)[C@H](NC(=O)[C@@H](NC(=O)[C@@H](NC(=O)[C@@H](N)CCC(=O)O)C(C)C)[C@@H](C)O)C(=O)N1CCC[C@H]1C(=O)N1CCC[C@H]1C(=O)N[C@@H](CCCCN)C(=O)N[C@@H](Cc1ccc(O)cc1)C(=O)N[C@H]1CSCc2cccc(c2)CSC[C@@H](C(=O)O)NC(=O)[C@H](CC(C)C)NC(=O)[C@H](CC(C)C)NC(=O)[C@H](CCC(=O)O)NC1=O [compound 69] (H-EVTIPPKYCELLC-OH; linker 9-13 via mXylylene; N-terminus and C-terminus assumed)

Ki (Calpain (Calpain-1); Table 4, calpain inhibitors): 5.3 ± 2 µM
Ki (Cathepsin K; Table 4, calpain inhibitors): > 100 µM
Molecule: CC[C@H](C)[C@H](N)C(=O)N1CCC[C@H]1C(=O)N1CCC[C@H]1C(=O)N[C@@H](CCCNC(=N)N)C(=O)N[C@@H](Cc1ccc(O)cc1)C(=O)N[C@H]1CSCc2cccc(c2)CSC[C@@H](C(=O)O)NC(=O)[C@H](CC(C)C)NC(=O)[C@H](CC(C)C)NC(=O)[C@H](CCC(=O)O)NC1=O [compound 80] (H-IPPRYCELLC-OH; linker 6-10 via mXylylene; N-terminus and C-terminus assumed)

Ki (Calpain (Calpain-1); Table 4, calpain inhibitors): 30.9 ± 9.2 µM
Molecule: CC[C@H](C)[C@H](N)C(=O)N1CCC[C@H]1C(=O)N1CCC[C@H]1C(=O)N[C@@H](CCCCN)C(=O)N[C@@H](Cc1ccc(O)cc1)C(=O)N[C@H]1CSCc2cccc(c2)CSC[C@@H](C(=O)O)NC(=O)[C@H](CC(C)C)NC(=O)[C@H](C)NC(=O)[C@H](CCC(=O)O)NC1=O [compound 86] (H-IPPKYCEALC-OH; linker 6-10 via mXylylene; N-terminus and C-terminus assumed)

cathepsin L inhibitory activity, in words (Cathepsin L): no inhibitory activity
Molecule: SEEFRQVMNGF [SEQ ID NO:1, reference compound]

Ki (Calpain (Calpain-1); Table 4, calpain inhibitors): 28.9 ± 9.1 µM
Ki (Cathepsin L): 12.5 ± 1.1 µM
Molecule: CC[C@H](C)[C@H](N)C(=O)N1CCC[C@H]1C(=O)N1CCC[C@H]1C(=O)N[C@@H](CCCCN)C(=O)N[C@@H](Cc1ccc(O)cc1)C(=O)N[C@H]1CSCc2cccc(c2)CSC[C@@H](C(=O)O)NC(=O)[C@H](CC(C)C)NC(=O)[C@H](CC(C)C)NC(=O)[C@H](C)NC1=O [compound 84] (H-IPPKYCALLC-OH; linker 6-10 via mXylylene; N-terminus and C-terminus assumed)

effect on cathepsin K (inhibition or activation), in words (Cathepsin K): did not inhibit
Molecule: CSCC[C@H](NC(=O)[C@H](CCCCN)NC(=O)[C@H](CCC(N)=O)NC(=O)[C@@H](NC(=O)[C@@H](NC(=O)[C@H](CCC(=O)O)NC(=O)[C@H](CCC(=O)O)NC(=O)[C@@H](N)CO)C(C)C)C(C)C)C(=O)N[C@H](C(=O)NCC(=O)N[C@@H](CC(C)C)C(=O)O)[C@@H](C)O [SEQ ID NO:32, SEEVVQKMTGL, reference compound] (H-SEEVVQKMTGL-OH)

Reference: patent US9670250B2, “Alpha-helical peptidomimetic inhibitors and methods using same” (The Trustees of the University of Pennsylvania, priority 2012, dated 2017)
